Reference: patent publication US7335674B2, “Benzothiazole-4,7-diones and benzoxazole-4,7-diones with substituents in position 5 or 6 and method for production thereof” (Societe de Conseils de Recherches et d'Applications …, priority 2003, dated 2008)

Legend:
[1] = tested on: Mia-Paca2 (human pancreas cancer cells); assay: Antiproliferative activity, WST1 colorimetric test, Mia-PaCa2; type: cell-based; conditions: MIA PaCa-2, Mia-Paca2, treated 96 hours, up to 10 μM, read-out: IC50 on the cell proliferation of the Mia-Paca2 lines
Protocol: (§1) iii) Characterization of the Antiproliferative Activity:
(§2) By way of example, the effect of a treatment on two human cell lines Mia-Paca2 and DU145 by the compounds of the examples described previously will be studied. The cell lines DU145 (human prostate cancer cells) and Mia-PaCa2 (human pancreas cancer cells) were acquired from the American Tissue Culture Collection (Rockville, Md., USA). The cells placed in 80 μl of Dulbecco's Modified Eagle's medium (Gibco-Brl, Cergy-Pontoise, France) completed with 10% foetal calf serum inactivated by heating (Gibco-Brl, Cergy-Pontoise, France), 50,000 units/l of penicillin and 50 mg/l of streptomycin (Gibco-Brl, 10378-057, Cergy-Pontoise, France), and 2 mM of glutamine (Gibco-Brl, Cergy-Pontoise, France) were seeded on a 96-well plate on day 0. The cells were treated on day 1 for 96 hours with increasing concentrations of each of the compounds to be tested up to 10 μM. At the end of this period, quantification of cell proliferation is evaluated by a colorimetric test based on the cleavage of the tetrazolium salt WST1 by the mitochondrial dehydrogenases in viable cells leading to the formation of formazan (Boehringer Mannheim, Meylan, France). These tests are carried out in duplicate with 8 determinations per concentration tested. For each compound to be tested, the values included in the linear part of the sigmoid were retained for a linear regression analysis and used to estimate the inhibitory concentration IC50. The products are solubilized in dimethylsulphoxide (DMSO) at 10^−2 M and finally used in culture with 0.1% DMSO.

[2] = tested on: DU145 (human prostate cancer cells); assay: Antiproliferative activity, WST1 colorimetric test, DU145; type: cell-based; conditions: DU-145, treated 96 hours, up to 10 μM, read-out: IC50 on the cell proliferation of the DU-145 lines
Protocol: as §1, §2

Row | SMILES | IC50 [1] [µM] | IC50 [2] [µM] | melting point [°C]
1 | Cc1cc(-c2nc3c(o2)C(=O)C(NCCN2CCCC2)=CC3=O)ccc1Br [Example 53, 2-(4-bromo-3-methylphenyl)-6-[(2-pyrrolidin-1-ylethyl)amino]-1,3-benzoxazole-4,7-dione] | ≤ 10 | ≤ 10 | 171 to 172
2 | O=C1C=C(NCCN2CCCC2)C(=O)c2oc(-c3ccc(Br)cc3Cl)nc21 [Example 55, 2-(4-bromo-2-chlorophenyl)-6-[(2-pyrrolidin-1-ylethyl)amino]-1,3-benzoxazole-4,7-dione] | ≤ 10 | ≤ 10 | 153 to 154
3 | COc1ccc(-c2nc3c(o2)C(=O)C(NCCN2CCCC2)=CC3=O)cc1OC [Example 57, 2-(3,4-dimethoxyphenyl)-6-[(2-pyrrolidin-1-ylethyl)amino]-1,3-benzoxazole-4,7-dione] | ≤ 10 | ≤ 10 | 198.5 to 199.5
4 | O=C1C=C(NCCN2CCCC2)C(=O)c2oc(Cc3c(F)cccc3Cl)nc21 [Example 58, 2-(2-chloro-6-fluorobenzyl)-6-[(2-pyrrolidin-1-ylethyl)amino]-1,3-benzoxazole-4,7-dione] | ≤ 10 | ≤ 10 | 173 to 174
5 | O=C1C=C(NCCN2CCCC2)C(=O)c2oc(-c3ccc4c(c3)OCO4)nc21 [Example 59, 2-(1,3-benzodioxol-5-yl)-6-[(2-pyrrolidin-1-ylethyl)amino]-1,3-benzoxazole4,7-dione] | ≤ 10 | ≤ 10 | 171 to 172
